Assay results: patent US8394787B2, “7-aza-spiro[3.5]nonane-7-carboxylate derivatives, preparation thereof and therapeutic use thereof” (Sanofi, priority 2009, dated 2013)

Columns and labels:
[1] = biological target: T1, enzyme FAAH (Fatty Acid Amide Hydrolase) (Mus musculus, UniProt O08914); experiment: FAAH radio-enzymatic test, hydrolysis of [1-3H ethanolamine] anandamide (protocol 1); format: biochemical; conditions: mouse brain membrane homogenate, anandamide 10 μM, 20 mins preincubation at 25° C., read-out: IC50 (concentration inhibiting 50% of the control enzymatic activity of FAAH)
T1 construct: The membrane homogenates are prepared extemporaneously by homogenizing the tissues; from tissue; host or cells: mouse brain (minus the cerebellum), homogenate
T1 sequence (O08914 1-579): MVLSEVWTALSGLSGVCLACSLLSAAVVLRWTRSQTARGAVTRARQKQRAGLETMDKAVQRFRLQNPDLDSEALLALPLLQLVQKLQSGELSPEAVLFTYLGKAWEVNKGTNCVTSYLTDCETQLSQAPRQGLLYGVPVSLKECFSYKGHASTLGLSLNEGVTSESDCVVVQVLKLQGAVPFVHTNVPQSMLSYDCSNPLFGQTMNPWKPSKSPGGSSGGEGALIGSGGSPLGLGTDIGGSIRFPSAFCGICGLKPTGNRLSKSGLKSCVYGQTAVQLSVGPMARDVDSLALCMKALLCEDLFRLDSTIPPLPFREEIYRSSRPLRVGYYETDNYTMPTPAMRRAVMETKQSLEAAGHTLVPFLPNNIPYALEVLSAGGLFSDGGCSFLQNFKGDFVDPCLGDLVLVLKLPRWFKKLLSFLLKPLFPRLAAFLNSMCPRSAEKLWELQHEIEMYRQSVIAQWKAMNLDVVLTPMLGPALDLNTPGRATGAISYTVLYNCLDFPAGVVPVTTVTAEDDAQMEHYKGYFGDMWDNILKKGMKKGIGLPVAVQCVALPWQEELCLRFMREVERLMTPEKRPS
Method: (§1) The compounds of the invention were subjected to pharmacological tests to determine their inhibitory effect on the enzyme FAAH (Fatty Acid Amide Hydrolase).
Thus, mouse brains (minus the cerebellum) are removed and stored at −80° C. The membrane homogenates are prepared extemporaneously by homogenizing the tissues using a Precellys® machine in the reaction buffer (10 mM Tris-HCl, pH=8, 150 mM NaCl and 1 mM ethylenediaminetetraacetic acid (EDTA)). The enzymatic reaction is performed in 96-well Multiscreen filtration plates in a final volume of 70 μl. Reaction buffer supplemented with fatty acid-free bovine serum albumin (BSA, 1 mg/ml) is used for the enzymatic reaction and the dilution of the compounds and the [1-^3H ethanol-amine] anandamide. The reaction buffer containing BSA (43 μl/well), the diluted test compounds at different concentrations (7 μl/well containing 1% DMSO) and the membrane preparation (10 μl/well, i.e. 200 μg of tissue per test) are successively added to the wells. After preincubation of the compounds with the enzyme at 25° C. for 20 mins, the reaction is started by adding [1-^3H ethanolamine] anandamide. (Specific activity 15-20 Ci/mmol) diluted with cold anandamide (10 μl/well, final concentration 10 μM, 0.01 μCi per test). After incubation for 20 mins at 25° C., the enzymatic reaction is stopped by addition of a […] solution of active charcoal prepared in 1.5M NaCl and 0.5M HCl buffer (50 μl/well). The mixture is stirred for 10 mins and the aqueous phase containing the [1-^3H]ethanolamine is then recovered by filtration under vacuum and counted by liquid scintillation.

[2] = biological target: T1, enzyme FAAH (Fatty Acid Amide Hydrolase); experiment: FAAH fluorescence enzymatic test, hydrolysis of AAMC (protocol 2); format: biochemical; conditions: mouse brain homogenate, AAMC 10 μM, 20 mins preincubation at 25° C., 40 mins at 37° C., read-out: IC50 (concentration inhibiting 50% of the control enzymatic activity of FAAH)
Method: as §1
Thus, mouse brains (minus the cerebellum) are removed and stored at −80° C. The brain homogenates are prepared extemporaneously by homogenizing the tissues using a Precellys® machine in the reaction buffer (10 mM Tris-HCl, pH=8, 150 mM NaCl and 1 mM ethylenediamine-tetraacetic acid (EDTA)). The enzymatic reaction is performed in black polystyrene 384-well plates in a final volume of 50 μl. Reaction buffer supplemented with fatty acid-free bovine serum albumin (BSA, 1 mg/ml) is used for the enzymatic reaction, dilution of the compounds and dilution of the AAMC. The reaction buffer containing BSA (25 μl/well), the diluted test compounds at different concentrations (5 μl/well containing 1% DMSO) and the membrane preparation (10 μl/well, i.e. 200 μg of tissue per test) are successively added to the wells. After preincubation of the compounds with the enzyme for 20 mins at 25° C., the reaction is started by addition of 10 μl of substrate per well (AAMC, final concentration 10 μM). After incubation for 40 mins at 37° C., the aminomethyl coumarin (AMC) produced is measured by fluorescent counting (Envision plate reader).

male OF1 mice = experiment: test of analgesia: PBQ-induced abdominal stretching; format: in vivo, mouse; conditions: 30 mg/kg p.o. at 120 mins before PBQ
Method: The in vivo activity of the compounds of the invention was evaluated in a test of analgesia.
Thus, the intraperitoneal (i.p.) administration of PBQ (phenylbenzoquinone, 2 mg/kg in 0.9% sodium chloride solution containing 5% ethanol) to male OF1 mice weighing 25 to 30 g causes abdominal stretching, on average 30 torsions or contractions during the period of 5 to 15 mins after injection. The test compounds are administered orally (p.o.) or intraperitoneally (i.p.) suspended in Tween 80 at 0.5%, 60 mins or 120 mins before the administration of PBQ. Under these conditions, the most powerful compounds reduce by 35% to 80% the number of stretches induced by the PBQ, in a dosage range lying between 1 and 30 mg/kg. For example, compound 25 of Table 1 reduces by 50% the number of stretches induced by the PBQ, at a dose of 30 mg/kg p.o. at 120 mins.

Row | Structure (SMILES) | IC50 [1] [nM] | melting point [°C] | IC50 [2] [nM] | reduction of the number of stretches induced by the PBQ (male OF1 mice) [%]
1 | CNC(=O)c1cc(COC(=O)N2CCC3(CC(Oc4ccc(-c5ccc(F)cc5)cc4)C3)C2)on1 (single isomer, unassigned) [Compound 29, 3-methylcarbamoyl-isoxazol-5-ylmethyl 2-(4′-fluorobiphenyl-4-yloxy)-6-aza-spiro[3.4]octane-6-carboxylate] | 5.3 | 135 to 137 |  | 
2 | CNC(=O)c1cc(COC(=O)N2CC3(CC(Oc4ccc(-c5ccc(F)cc5)cc4)C3)C2)on1 [Compound 25, 3-methylcarbamoyl-isoxazol-5-ylmethyl 6-(4′-fluorobiphenyl-4-yloxy)-2-aza-spiro[3.3]heptane-2-carboxylate] |  | 163 to 165 | 0.46 | 50
3 | CNC(=O)c1cc(COC(=O)N2CCC3(CC2)CC(Oc2ccc(-c4ccc(F)cc4)cc2)C3)on1 [Compound 19, 3-methylcarbamoyl-isoxazol-5-ylmethyl 2-(4′-fluorobiphenyl-4-yloxy)-7-aza-spiro[3.5]nonane-7-carboxylate] |  | 174 to 176 | 1.7 | 
4 | CNC(=O)c1cc(COC(=O)N2CCC3(CC2)CC(Oc2cccc(-c4ccc(F)cc4)c2)C3)on1 [Compound 7, 3-methylcarbamoyl-isoxazol-5-ylmethyl 2-(4′-fluorobiphenyl-3-yloxy)-7-aza-spiro[3.5]nonane-7-carboxylate] | 19 |  |  | 
5 | CNC(=O)c1cc(COC(=O)N2CCC3(CC(Oc4ccc(-c5ccc(F)cc5)cc4)C3)C2)on1 (single isomer, unassigned) [Compound 32, 3-methylcarbamoyl-isoxazol-5-ylmethyl 2-(4′-fluorobiphenyl-4-yloxy)-6-aza-spiro[3.4]octane-6-carboxylate] | 3 | 149 to 151 |  | 
6 | CNC(=O)c1cc(COC(=O)N2CCC3(CC(Oc4ccc(-c5ccc(F)cc5)cc4)C3)C2)on1 (single isomer, unassigned) [Compound 33, 3-methylcarbamoyl-isoxazol-5-ylmethyl 2-(4′-fluorobiphenyl-4-yloxy)-6-aza-spiro[3.4]octane-6-carboxylate] | 19 | 150 to 152 |  | 
